Data: the supplement of paper PMC10307832

What was measured:
Experiment in all cases: relative viability (nuclei count vs DMSO), 5 days (fraction); higher = more cells survive
Tozasertib = compound: Cc1cc(Nc2cc(N3CCN(C)CC3)nc(Sc3ccc(NC(=O)C4CC4)cc3)n2)n[nH]1 [Tozasertib]
How it was run: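 A plate was accepted only when its control CV was below 25% and the cells had doubled at least once. Viability is defined from nuclear counts as treated wells divided by vehicle wells, with the median taken across plates. That median covers lung cancer cell lines grown in 1536-well plates, dosed by pinning at five √10-spaced library-drug concentrations, and counted in MetaXpress from 4× Hoechst images after 5 days.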

Tozasertib + Foretinib = compound: Cc1cc(Nc2cc(N3CCN(C)CC3)nc(Sc3ccc(NC(=O)C4CC4)cc3)n2)n[nH]1 [Tozasertib] + COc1cc2c(Oc3ccc(NC(=O)C4(C(=O)Nc5ccc(F)cc5)CC4)cc3F)ccnc2cc1OCCCN1CCOCC1 [Foretinib] (partner 0.25 µM)
How it was run: (§1)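 Lung cancer cell lines, seeded in 1536-well plates, were treated the following day by pin tool with a single drug or with five library-drug doses (not always all listed) in √10 steps on top of a fixed anchor-drug dose. Cells were fixed and nuclei stained in one step after 5 days, and nuclei were counted. Relative viability is the nuclei count for treated wells divided by that for vehicle wells, reported as medians of duplicate plates.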

Tozasertib + Pictilisib = compound: Cc1cc(Nc2cc(N3CCN(C)CC3)nc(Sc3ccc(NC(=O)C4CC4)cc3)n2)n[nH]1 [Tozasertib] + CS(=O)(=O)N1CCN(Cc2cc3nc(-c4cccc5[nH]ncc45)nc(N4CCOCC4)c3s2)CC1 [Pictilisib] (partner 1 µM)
How it was run: as §1

Tozasertib + Linsitinib = compound: Cc1cc(Nc2cc(N3CCN(C)CC3)nc(Sc3ccc(NC(=O)C4CC4)cc3)n2)n[nH]1 [Tozasertib] + C[C@]1(O)C[C@@H](c2nc(-c3ccc4ccc(-c5ccccc5)nc4c3)c3c(N)nccn32)C1 [Linsitinib] (partner 1 µM)
How it was run: as §1

| Cell Line | relative viability (Tozasertib; 0.004 µM) | relative viability (Tozasertib; 0.01265 µM) | relative viability (Tozasertib; 0.04 µM) | relative viability (Tozasertib; 0.1 µM, anchor plate) | relative viability (Tozasertib; 0.1265 µM) | relative viability (Tozasertib + Foretinib; first compound 0.004 µM) | relative viability (Tozasertib + Foretinib; first compound 0.01265 µM) | relative viability (Tozasertib + Foretinib; first compound 0.04 µM) | relative viability (Tozasertib + Foretinib; first compound 0.1265 µM) | relative viability (Tozasertib + Pictilisib; first compound 0.004 µM) | relative viability (Tozasertib + Pictilisib; first compound 0.01265 µM) | relative viability (Tozasertib + Pictilisib; first compound 0.04 µM) | relative viability (Tozasertib + Pictilisib; first compound 0.1265 µM) | relative viability (Tozasertib + Linsitinib; first compound 0.004 µM) | relative viability (Tozasertib + Linsitinib; first compound 0.01265 µM) | relative viability (Tozasertib + Linsitinib; first compound 0.04 µM) | relative viability (Tozasertib + Linsitinib; first compound 0.1265 µM) |
| --- | --- | --- | --- | --- | --- | --- | --- | --- | --- | --- | --- | --- | --- | --- | --- | --- | --- |
| EKVX | 0.939 | 0.937 | 0.988 | 0.386 | 0.898 | 0.74 | 0.76 | 0.838 | 0.786 | 0.383 | 0.443 | 0.527 | 0.348 | 0.812 | 0.975 | 1.18 | 0.913 |
| NCI-H2009 | 1.03 | 0.951 | 1 | 0.74 | 0.885 | 1.21 | 1.19 | 1.33 | 0.994 | 0.851 | 0.79 |  | 0.552 | 1.19 | 1.22 | 1.15 | 1.19 |
| NCI-H520 | 1.07 | 0.934 | 1.07 | 0.458 | 0.547 | 0.872 | 0.602 | 0.923 | 0.608 | 0.315 | 0.268 | 0.288 | 0.186 | 1.07 | 0.952 | 0.978 | 0.472 |
| PC-14 | 0.81 | 0.904 | 1.1 | 0.601 | 0.638 | 0.966 | 1.09 | 1.04 | 0.986 | 0.14 | 0.541 | 0.593 | 0.725 | 1.01 | 1 | 1.03 | 0.828 |
| EMC-BAC-2 | 1.01 | 0.946 | 0.913 | 0.294 | 0.486 | 1.1 | 0.935 | 1.02 | 0.642 | 0.547 | 0.541 | 0.654 | 0.395 | 0.867 | 0.79 |  | 0.611 |
| HCC-827 | 1.1 | 1.04 | 1.09 | 0.414 | 0.976 | 0.996 | 1.03 | 1.13 | 0.758 | 0.872 | 0.999 | 1.14 | 0.918 | 1.02 | 1 |  | 0.84 |
| NCI-H1437 | 1.01 | 0.941 | 0.924 | 0.406 |  | 1.22 | 1.25 | 1.2 | 1.19 | 0.479 | 0.385 | 0.448 | 0.318 | 1.09 | 0.971 | 1 | 0.779 |
| NCI-H647 | 1.04 |  | 0.926 | 0.279 | 0.458 | 1.24 | 1.28 | 1.34 |  | 0.442 |  | 0.476 | 0.171 | 0.854 | 1.33 | 1.22 |  |
| LC-2-ad | 1.06 | 0.913 | 0.928 | 0.453 | 0.494 | 0.812 |  | 1.04 | 0.609 | 0.505 | 0.516 | 0.427 | 0.127 | 0.906 | 0.82 | 0.684 | 0.329 |
| NCI-H1395 | 1.03 | 0.817 | 0.776 | 0.768 | 0.495 | 0.951 | 0.864 | 0.972 | 0.838 | 0.657 | 0.528 | 0.604 | 0.469 | 1.57 | 0.974 | 1.16 | 0.75 |
| CAL-12T | 1.09 |  | 0.952 | 0.309 | 0.42 | 1.19 | 1.04 | 1.11 | 1.11 | 0.472 | 0.386 | 0.414 | 0.171 | 0.857 | 0.804 | 0.793 | 0.64 |
| NCI-H441 | 0.987 |  |  | 0.664 |  | 1.05 | 0.914 | 0.895 | 0.887 | 0.431 | 0.447 | 0.477 | 0.304 | 0.496 | 0.551 | 0.616 | 0.353 |
| NCI-H1666 | 0.901 | 0.892 | 0.975 | 0.601 | 0.846 | 0.978 | 0.879 | 0.97 | 0.762 | 0.455 | 0.412 | 0.586 | 0.305 | 0.835 | 0.854 | 0.861 | 0.64 |
| NCI-H838 | 0.994 | 0.951 | 1.06 | 0.265 | 0.683 | 0.977 | 0.922 | 1.05 | 0.921 | 0.453 | 0.425 | 0.427 | 0.202 | 1.07 | 0.972 | 1.15 | 0.861 |
| NCI-H2347 | 1.03 | 1 | 1.08 | 0.573 | 0.941 | 1.17 | 0.908 | 0.842 | 0.87 | 0.723 | 0.763 | 0.648 | 0.389 | 0.978 | 1 | 0.964 | 0.914 |
